Test results taken from US10370644B2, “Method for making human pluripotent suspension cultures and cells derived therefrom” (Janssen Biotech, Inc., priority 2012, dated 2019).

Columns and labels:
Format in all cases: cell-based
[1] = system: Clusters from pluripotent human embryonic stem cell line H1 (NIH code: WA01); experiment: qRT-PCR gene expression, fold versus undifferentiated cells, 0-72 hours of differentiation (Example 15)
Protocol: (§1) Clusters from pluripotent human embryonic stem cell line H1 (NIH code: WA01) were seeded at 0.5×10^6 cells/ml in Erlenmeyer shaker flasks in MCDB-131 medium containing […] sodium bicarbonate and 5.5 mM glucose (Catalog #A13051 DJ, Invitrogen, CA), which was supplemented with 2% fatty acid free BSA (Catalog #68700, Proliant, Iowa), 1× GlutaMAX™ (Catalog #35050-079, Invitrogen, CA), an additional 2.5 mM glucose (Catalog #G8769, Sigma) and ITS-X at 1:50,000 stock concentration (Catalog #51500056, Invitrogen, CA). MCDB-131 medium supplemented in this manner will be referred to as stage 1 basal medium or “Neat” medium for the purposes of this example. The GSK3B inhibitor, 14-Prop-2-en-1-yl-3,5,7,14,17,23,27-heptaazatetracyclo[19.3.1.1-2,6˜.1˜8,12˜]heptacosa-1(25),2(27),3,5,8(26),9,11,21,23-nonaen-16-one, U.S. patent application Ser. No. 12/494,789; incorporated herein by reference in its entirety will be referred to as “MCX”.
(§2) Clusters were treated on the first day of differentiation with one of six conditions: (1) Neat, (2) 3 μM MCX plus 100 ng/ml GDF-8 (Catalog #120-00, Peprotech), (3) 3 μM MCX only, (4) 100 ng/ml GDF-8 only, (5) 20 ng/ml WNT-3A (Catalog #1324-WN-002, R&D Systems, MN) plus 100 ng/ml Activin A (Catalog #338-AC, R&D Systems, MN), or (6) 20 ng/ml WNT-3A only.
(§3) Media in each of the conditions was changed at 24 and 48 hours after the initiation of differentiation. At these times, cells in conditions 1, 2, 3, and 4 were changed to fresh stage 1 basal media supplemented with 100 ng/ml GDF8 while cells in conditions 5 and 6 were changed to fresh stage 1 basal media supplemented with 100 ng/ml Activin A.
However, consistent with the differences in cell cycle observed through the process of forming definitive endoderm, intermediate differences in gene expression were seen. […] (FIGS. 88c and e).

[2] = system: Clusters from pluripotent human embryonic stem cell line H1 (NIH code: WA01); experiment: Efficiency of definitive endoderm generation: percentage of cells expressing CXCR4 (CD184), CD99 and CD9 by flow cytometry after 3 days of differentiation in suspension culture; settings: for CD9 (% by FACS) / CD184 (% by FACS) / CD99 (% by FACS): end of day three
Protocol: Clusters from pluripotent human embryonic stem cell line H1 (NIH code: […] MCDB-131 medium supplemented in this manner will be referred to as “stage 1 basal medium” for the purposes of this application. […] No. 12/494,789; incorporated herein by reference in its entirety) and 100 ng/ml GDF-8 (Catalog #120-00, Peprotech), or 3 μM MCX only, or 20 ng/ml WNT-3A (Catalog #1324-WN-002, R&D Systems, MN) plus 100 ng/ml Activin A (Catalog #338-AC, R&D Systems, MN) or 20 ng/ml WNT-3A only. On day two, cells were transferred to fresh stage 1 basal media supplemented with either 100 ng/ml GDF8 or 100 ng/ml Activin A. Samples were collected for flow cytometry, PCR and Western Blot analysis at various time points ranging from time zero (immediately before addition of basal media plus supplements) up to 72 hours after beginning differentiation. The efficiency with which definitive endoderm was generated was determined after 3 days of differentiation under each condition by measuring the percentage of cells expressing the cells surface markers CXCR4, CD99 and CD9 using flow cytometry. […] Clusters from pluripotent human embryonic stem cell line H1 (NIH code: WA01) were seeded at cell densities ranging from 0.25×10^6 to 2×10^6 cells/ml in Erlenmeyer/shaker flasks or spinner flasks in stage 1 basal media as described in Example 9. Clusters were treated with stage 1 basal medium containing 1.5, 2, 3, or 4 μM MCX on day one of differentiation and with fresh stage 1 basal medium containing 100 ng/ml GDF-8 on day 2. No media exchange was performed on day three. Samples were collected for flow cytometry and PCR analysis at the end of day three of differentiation. The efficiency with which definitive endoderm was generated was then determined by measuring the percentage of cells expressing the cells surface markers CXCR4, CD99 and CD9 using flow cytometry. […] However, by increasing BSA concentrations, the effects of MCX can be modulated such that concentrations≥4 micromolar may be used. Conversely, concentrations≤1.5 micromolar may be used to generate definitive endoderm when used with lower BSA concentrations. The example was carried out to determine whether GlutaMAX™ supplementation was required for generation of definitive endoderm by suspending clusters in stage 1 basal media (described in Example 9) plus or minus GlutaMAX™, which was supplemented with 3 μM MCX on day one of differentiation and with fresh stage 1 basal medium containing 100 ng/ml GDF-8 on day 2. No media exchange was performed on day three. Samples were collected for flow cytometry and PCR analysis at the end of day three of differentiation. The efficiency with which definitive endoderm was generated was determined under each condition by measuring the percentage of cells expressing the cells surface markers CXCR4, CD99 and CD9 using flow cytometry. Clusters from pluripotent human embryonic stem cell line H1 (NIH code: […] Clusters were treated with stage 1 basal medium containing MCX and GDF-8 as described in Example 12. Samples were collected for flow cytometry at the end of day three of differentiation. Phase contrast images were also captured on each day of differentiation. The efficiency with which definitive endoderm was generated was then determined by measuring the percentage of cells expressing the cells surface markers CXCR4, CD99 and CD9 using flow cytometry. The data is shown in FACS plots in FIGS. 44 A&B and summarized in Table 17. […] In addition, it was observed that differences in bicarbonate levels correlated with differences in cluster morphologies at the end of stage 1, as observed by phase contrast microscopy (FIGS. 44 C&D). Also, cells differentiated under high bicarbonate levels were noted to form looser clusters than cells differentiated in 2.43 g/L of bicarbonate.

[3] = system: Clusters from pluripotent human embryonic stem cell line H1 (NIH code: WA01); experiment: Cell viability of clusters treated with MCX in suspension culture; settings: MCX at concentrations above 4 μM
Protocol: Clusters from pluripotent human embryonic stem cell line H1 (NIH code: WA01) were seeded at cell densities ranging from 0.25×10^6 to 2×10^6 cells/ml in Erlenmeyer/shaker flasks or spinner flasks in stage 1 basal media as described in Example 9. Clusters were treated with stage 1 basal medium containing 1.5, 2, 3, or 4 μM MCX on day one of differentiation and with fresh stage 1 basal medium containing 100 ng/ml GDF-8 on day 2. No media exchange was performed on day three. Samples were collected for flow cytometry and PCR analysis at the end of day three of differentiation.
The efficiency with which definitive endoderm was generated was then determined by measuring the percentage of cells expressing the cells surface markers CXCR4, CD99 and CD9 using flow cytometry. […] However, by increasing BSA concentrations, the effects of MCX can be modulated such that concentrations≥4 micromolar may be used. Conversely, concentrations≤1.5 micromolar may be used to generate definitive endoderm when used with lower BSA concentrations.

[4] = system: Clusters from pluripotent human embryonic stem cell line H1 (NIH code: WA01); experiment: EdU incorporation and cell cycle stage (G0/G1, S, G2/M) by flow cytometry during definitive endoderm differentiation; settings: for cells in G0/G1 of the cell cycle: 48 hours after initiation of differentiation; for percentage of cells with EdU incorporation (mean of GDF8, WNT-3A, WNT-3A+Activin A and neat medium) / average decrease in the number of cells in G0/G1 (GDF8, WNT-3A, WNT-3A+Activin A and neat medium): six hours after the initiation of differentiation; for percentage of cells with EdU incorporation (mean of GDF8, WNT-3A, WNT-3A+Activin A and neat medium): SD ±1.2; for average decrease in the number of cells in G0/G1 (GDF8, WNT-3A, WNT-3A+Activin A and neat medium): Standard Deviation ±5%
Protocol: as §1, §2, §3
One hour prior to initiation of differentiation, and 5, 23, 29, 47, or 71 hours after the initiation of differentiation (referred to as “Time 0”), suspension samples were transferred to a non-tissue culture treated six well dish and incubated with EdU (Click-iT® EdU Kit, Life Technologies Corporation, Carlsbad, Calif.) for one hour. The EdU incubated cells were then assessed by flow cytometry at times 0, 6, 24, 30, 48, or 72 hours after initiation of differentiation to measure the percentage of cells in G0/G1, S, or G2/M stages of the cell cycle (FIGS. 81-87).

[5] = 1.5 μM MCX on day one, 100 ng/ml GDF-8 on day 2
[6] = 2 μM MCX on day one, 100 ng/ml GDF-8 on day 2
[7] = 3 μM MCX on day one, 100 ng/ml GDF-8 on day 2
[8] = 4 μM MCX on day one, 100 ng/ml GDF-8 on day 2
[9] = 6 hours following initiation of differentiation
[10] = 2.43 g/L Sodium bicarbonate in modified stage 1 basal media, MCX and GDF-8
[11] = 3.64 g/L Sodium bicarbonate in stage 1 basal media, MCX and GDF-8

## C=CCN1CC(=O)NCCCc2cncc(c2)-c2ncnc(n2)Nc2cccc(c2)C1 [MCX, 14-Prop-2-en-1-yl-3,5,7,14,17,23,27-heptaazatetracyclo[19.3.1.1˜2,6-˜0.1˜8,12.˜]heptacosa-1(25),2(27),3,5,8(26),9,11,21,23-non-aen-16-one]
[1]; 24 hours after the initiation of differentiation
  magnitude of induction of FGF4, FOXA2 and SOX17 compared to the other four conditions: much lower
[1]; by 24 hours
  expression of genes for pluripotency (NANOG and POU5F1/OCT4) versus starting cell population or other four conditions: dramatically reduced
[1]; end of definitive endoderm formation
  definitive endoderm by gene expression versus 20 ng/ml WNT-3A plus 100 ng/ml Activin A on day one: comparable
[1]; first 24 hours of differentiation
  induction of genes T (brachyury), GATA4 and CDX2 versus WNT-3A+Activin A or the other three conditions: substantially higher
[2]; [5]
  CD9 (% by FACS): 68.4%
  CD184 (% by FACS): 67.8%
[2]; [6]
  CD9 (% by FACS): 0.2%
  CD184 (% by FACS): 96.5%
[2]; 3 μM MCX in the absence of a TGF-β family member on day one
  definitive endoderm level versus 3 μM MCX plus 100 ng/ml GDF-8 or 20 ng/ml WNT-3A plus 100 ng/ml Activin A on day one: comparable
[2]; [7]
  CD9 (% by FACS): 0.2%
  CD184 (% by FACS): 96.0%
[2]; [8]
  CD9 (% by FACS): 1.0%
  CD184 (% by FACS): 95.2%
[2]; MCX at concentrations less than 2 μM
  definitive endoderm positive cells (CXCR4 positive, CD9 positive): progressively fewer definitive endoderm positive cells
[3]
  effect on cell viability: decreased cell viability
[4]; [9]
  increase in G0/G1 cells: 54%
  reduction in the incorporation of EdU compared to the other four treatment conditions: ~40%

## O=C([O-])O.[Na+] [Sodium bicarbonate]
[2]; [10]
  CD9 (% by FACS): 12.3%
  CD99 (% by FACS): 66.7%
[2]; 2.43 g/L sodium bicarbonate
  cells expressing CXCR4, on average: 87.4%
[2]; [11]
  CD9 (% by FACS): 5.5%
  CD99 (% by FACS): 92.7%
[2]; 3.64 g/L sodium bicarbonate
  cells expressing CXCR4, on average: 97.35%

## GDF8: TGF-β family member, GDF8 (Catalog #120-00, Peprotech)
[4]
  cells in G0/G1 of the cell cycle: 48.5%
  percentage of cells with EdU incorporation (mean of GDF8, WNT-3A, WNT-3A+Activin A and neat medium): 48.1%
  average decrease in the number of cells in G0/G1 (GDF8, WNT-3A, WNT-3A+Activin A and neat medium): 13%

B1: WNT-3A: WNT-3A (Catalog #1324-WN-002, R&D Systems) (protein, UniProt P56704 19-352, looked up)
Protein Wnt-3a: SYPIWWSLAVGPQYSSLGSQPILCASIPGLVPKQLRFCRNYVEIMPSVAEGIKIGIQECQHQFRGRRWNCTTVHDSLAIFGPVLDKATRESAFVHAIASAGVAFAVTRSCAEGTAAICGCSSRHQGSPGKGWKWGGCSEDIEFGGMVSREFADARENRPDARSAMNRHNNEAGRQAIASHMHLKCKCHGLSGSCEVKTCWWSQPDFRAIGDFLKDKYDSASEMVVEKHRESRGWVETLRPRYTYFKVPTERDLVYYEASPNFCEPNPETGSFGTRDRTCNVSSHGIDGCDLLCCGRGHNARAERRREKCRCVFHWCCYVSCQECTRVYDVHTCK
[4]
  cells in G0/G1 of the cell cycle: 55.8%
  percentage of cells with EdU incorporation (mean of GDF8, WNT-3A, WNT-3A+Activin A and neat medium): 48.1%
  average decrease in the number of cells in G0/G1 (GDF8, WNT-3A, WNT-3A+Activin A and neat medium): 13%
